Assay results from US5855906A, “Intravaginal drug delivery devices for the administration of 17β-oestradiol precursors” (priority 1994, dated 1999).
≈ marks a conversion by molar mass, not a printed value. Entries after “also recorded” stand apart in the source; their conditions may differ. Like-named read-outs stand apart in the source and are kept apart here.

Key:
[1] = compiled from Novel Drug Delivery Systems (Chien); cited from earlier work
[2] = In vitro release from rings of varying core length and apparent/standard k value (Crank's equation); assay type: physicochemical; set-up: Standard k: unit not given here; conditions: for k (using core of 141 mm length) / k (standard k): Table 5; for apparent k value versus core length: Table 3 rings; for apparent k value versus core length / k: 1% (w/v) BKC; for Mean Daily Release / Standard k: Table 4; for Mean Daily Release / Mean Daily Release (as precursor): n = 5; for k: in µg/day/mm; for Mean Daily Release (as precursor): 250 ml 1% (w/v) BKC
Description: Precursor release from a cylindrical device of core design, which comprises a polymer matrix in the form of a core incorporating 17β-oestradiol precursor and a sheath surrounding the core, can be described by Crank's equation: [formula] in which R=precursor release rate (μg/day)
Crank's equation relates the precursor release rate (R), in sink conditions, to the solubility (C2 S) and diffusibility (D) of the precursor in the polymer matrix, its partition characteristics (π) between the polymer matrix and the dissolution medium; and the ring dimensions (l, b, a). For any given precursor in any given polymer matrix, CS, D and π will be constant and can be grouped together to form the composite constant, k:
The k value can be empirically derived using Crank's equation in the following manner: [formula]
The k value is dependent on core length for certain of the 17β-oestradiol precursors (see Example 6 hereinafter). Accordingly, the k value at a core length of 35 mm has been denoted "standard k" value hereinafter.
Intravaginal drug delivery devices in the form of rings were prepared, each with a ring geometry as described in Table 3, by following the General Method of Manufacture set out hereinabove.
The dissolution medium was changed daily, following the protocol set out hereinabove. Mean daily release rates from the second week of dissolution experiments were used to determine the apparent k values presented in Table 3.
It was, therefore, decided to determine k values at a core length of 35 mm and such k values are hereinafter referred to as "standard k" values.
The standard k value was determined from the mean daily release rates observed in Example 6. The dissolution medium of 1.0% (w/v) of an aqueous solution of benzalkonium chloride was used in respect of the various 17β-oestradiol precursors, so as to ensure sink conditions.

[3] = In vitro dissolution: mean daily release from full-length-core rings over up to 90 days in three media; assay type: physicochemical; set-up: key to Mean Daily Release: **: Not detected; conditions: 9 × 54 mm ring, core 141 × 2 mm, 37 °C, N = 4
Description: In all cases the ring geometries comprise a ring of dimensions 9 mm (cross-sectional diameter)×54 mm (outer diameter) and containing a full length core (141 mm) of cross-sectional diameter 2 mm. […] The saline and benzalkonium chloride-containing media were chosen to ensure `sink conditions` in at least one medium for each intravaginal ring. It will be recognised by those skilled in the art that the term `sink conditions` refers to that set of experimental conditions in vitro which effectively simulates the active haemoperfusion that occurs in vivo, and which results in a maximum drug concentration gradient and maximum drug diffusion rate, at any given time, across the aqueous boundary layer. Thus, an in vitro dissolution experiment can be designed such that the solution solubility of the released drug in the dissolution medium is much greater than its bulk concentration in this medium at any given time, for example, by micellar drug solubilisation due to incorporation of a surfactant such as benzalkonium chloride (BKC), at a concentration above its critical micelle concentration. Thus, each ring was suspended by a thread in an individual closed flask containing the dissolution medium, maintained at a constant temperature of 37° C. The contents of the flask were gently agitated in order to prevent the occurrence of a hydrostatic layer on the surface of the ring. After 24 hours, the ring was removed and suspended in a flask of fresh dissolution medium of identical volume by a method identical to that previously described.

[4] = Aqueous solubility in distilled water at 20 °C; conditions: for requisite aqueous solubility (not less than 1 μg per 100 ml): 20 °C
physchem = conditions: distilled water
[5] = cited from earlier work
[6] = shell ring; cited from earlier work
[7] = 17β-oestradiol ring; EP 0 253 109 0.5 to 25 μg per day; Smith et al 5 to 10 μg per day; cited from earlier work
[8] = shell ring, 58 mm × 9.5 mm; cited from earlier work
[9] = non-oral preparations, read-out: plasma levels of 17β-oestradiol, cited from earlier work
[10] = In vitro plasma hydrolysis (stability in human blood at 37 °C)
[11] = Nominal in vitro daily release from intravaginal rings under sink conditions (1% w/v benzalkonium chloride, 37 °C); assay type: physicochemical; conditions: "100 μg" ring, core 2×141 mm
Experimental: The nominal in vitro release rates set out in Table 1 for the rings of Examples 1-5 were determined under sink conditions of 1% (w/v) benzalkonium chloride. These release rates were determined in the following manner.
Each ring (n=4) was suspended in the dissolution medium in an individual flask which is then capped, placed in a suitable oven at 37° C. and shaken. The dissolution medium was changed every 24 hours (±30 minutes). An aliquot of the used dissolution medium was analysed by high performance liquid chromatography (HPLC) using reverse phase packing and UV detection (at 235 nm for 17β-oestradiol-3-acetate and for
. The sensitivity of the original and improved analytical methods is 5 μg/100 ml.

[12] = Silicone solubility at 37 °C in Dow Corning 360 medical fluid; assay type: physicochemical; conditions: organic solvent or mixture
Experimental: Silicone solubility was determined at 37° C. in Dow Corning (Trade Mark) 360 medical fluid.

[13] = 1.0% (w/v) BKC, core length 35 mm
[14] = core length 35 mm, 1.0% (w/v) BKC

Compound	k (using core of 141 mm length) [2]	Mean Daily Release ([3]; 0.133% (w/v) BKC)	Mean Daily Release ([3]; 0.9% (w/v) saline)	Mean Daily Release ([3]; 1.0% (w/v) BKC)	Mean Daily Release [2, 13]	Standard k [2, 14]	k (standard k) ([2]; core length 35 mm)	k ([2]; core length 35 mm)	Mean Daily Release (as precursor) ([2]; core length 35 mm)	k ([2]; core length 70 mm)	Mean Daily Release (as precursor) ([2]; core length 70 mm)	k ([2]; core length 140 mm)	Mean Daily Release (as precursor) ([2]; core length 140 mm)	other results
CCCCC(=O)O[C@H]1CC[C@H]2[C@@H]3CCc4cc(O)ccc4[C@H]3CC[C@]12C [17β-oestradiol-17-valerate, reference compound]	5.86 μg/day/mm	365 μg per day	**	550 μg per day										Silicone solubility [1]: 15.02 mg/100 ml; requisite aqueous solubility (not less than 1 μg per 100 ml) [4]: too low; also recorded: not possessing the requisite aqueous solubility
CCC(=O)O[C@H]1CC[C@H]2[C@@H]3CCc4cc(O)ccc4[C@H]3CC[C@]12C		112 μg per day	26 μg per day	218 μg per day	42.86 µg/day	1.842	1.842 μg/day/mm	1.842	42.86 µg/day	1.795	83.54 µg/day	1.667	155.20 µg/day	solubility (physchem): 0.05 µg/mL (≈ 0.152 µM); apparent k value versus core length [2]: varies with core length; k ([2]; core length 17 mm): 2.130; Mean Daily Release (as precursor) ([2]; core length 17 mm): 24.08 µg/day
C[C@]12CC[C@@H]3c4ccc(O)cc4CC[C@H]3[C@@H]1CC[C@@H]2O [17β-oestradiol]	0.09 μg/day/mm		8 μg per day											initial serum 17β-oestradiol level ([5]; homogeneous ring 400 mg, within one hour, 60 min): about 700 pg/ml; mean serum 17β-oestradiol ([5]; shell ring (100, 200 or 400 mg), one hour after insertion, 60 min): 300 pg/mL; mean serum 17β-oestradiol (in words) ([5]; shell ring, baseline 24 pg/ml): approached the baseline level of 24 pg/ml within 24 hours; also recorded: falling back to the baseline at 2 and 3 months; in vitro release rate of 17β-oestradiol [6]: 200 μg per day; alleviation of symptoms of hypo-oestrogenism (in words) [7]: symptoms in the human female arising from a hypo-oestrogenic condition can be alleviated; also recorded: effective at alleviating those symptoms associated with hypo-oestrogenism that relate specifically to atrophy of vaginal and urethral epithelium; daily release [8]: 180 μg per day; concentration ([9]; transdermal 50 μg per day (low dose)): ~0.2 nM; concentration ([9]; transdermal 100 μg per day (high dose)): ~0.36 nM
C#C[C@]1(O)CC[C@H]2[C@@H]3CCC4=CC(=O)CC[C@@H]4[C@H]3CC[C@@]21CC [levonorgestrel]														daily release [8]: 290 μg per day
CC(=O)O[C@H]1CC[C@H]2[C@@H]3CCc4cc(O)ccc4[C@H]3CC[C@]12C			24 μg per day	96 μg per day	19.50 µg/day	0.838	0.838 μg/day/mm	0.8380	19.50 µg/day	0.8797	40.94 µg/day	0.9395	87.45 µg/day	apparent k value versus core length [2]: varies with core length; half-life [10]: 4 h; nominal in vitro daily release rate [11]: 100 µg; solubility ([4]; water): 0.12 µg/mL (≈ 0.382 µM); solubility ([12]; Dow Corning 360 medical fluid, 37 °C, read-out: Silicone solubility): 17 µg/mL (≈ 54.1 µM)
C[C@]12CC[C@@H]3c4ccc(OC(=O)c5ccccc5)cc4CC[C@H]3[C@@H]1CC[C@@H]2O [reference compound]	0.70 μg/day/mm	42 μg per day	< 5 μg per day	66 μg per day										Silicone solubility [1]: 3.68 mg/100 ml; requisite aqueous solubility (not less than 1 μg per 100 ml) [4]: not possessing the requisite aqueous solubility
CCC(=O)Oc1ccc2c(c1)CC[C@@H]1[C@@H]2CC[C@]2(C)[C@@H](O)CC[C@@H]12				1200 μg per day	300.00 µg/day	12.89	12.89 μg/day/mm	12.89	300.00 µg/day	12.89	600.00 µg/day	12.89	1200.00 µg/day	solubility (physchem): 2.3 µg/mL (≈ 7 µM); Mean Daily Release ([2]; 0.9% (w/v) saline, core length 35 mm): 250 to 350 µg/day; solubility [12]: 300 µg/mL (≈ 913 µM)
